Measurements from US20120245159A1, “COMPOSITION AND METHOD FOR CONTROLLING ARTHROPOD PESTS” (SUMITOMO CHEMICAL COMPANY, LIMITED, priority 2009, published 2012).

Assays:
[1] = test system: cotton aphid (Aphis gossypii); assay: Test Example 1: pesticidal effect against cotton aphid by spray treatment (cucumber leaf disk, control value); assay type: in vivo; conditions: composition of the compound and clothianidin; spray over cucumber leaf disk, 25° C., 5 days; summary of Table 43
Description: A commercially available clothianidin water-soluble agent, manufactured by Sumitomo Chemical Co., Ltd. under the product name of Dantotsu (registered trademark) water-soluble agent, as the neonicotinoide compound was diluted with water. […] In a well of 24-well plate containing agar, a cucumber leaf disk was put on the agar and about 15 cotton aphids (Aphis gossypii) were released on the leaf disk. The test chemical solution (20 μl/well) was sprayed over the leaf disk, followed by storage in a constant-temperature breeding room at 25° C. for 5 days, and then the number of surviving aphids was checked. A control value (%) was calculated by the following equation. […] wherein symbols represents the following meanings. Cb: Number of bugs in non-treated group before treatment Cai: Number of bugs in a non-treated group on observation Tb: Number of bugs in treated group before treatment Tai: Number of bugs in treated group on observation

[2] = test system: brown planthopper (Nilaparvata lugens); assay: Test Example 2: pesticidal effect against brown planthopper by foliage spray treatment of rice (control value); assay type: in vivo; conditions: foliage spray of rice seedlings, third-instar larvae, after 5 days
[3] = composition of the compound and clothianidin, summary of Table 44
[4] = composition of the compound and dinotefuran, summary of Table 48
[5] = composition of the compound and imidacloprid, summary of Table 47
[6] = composition of the compound and nitenpyram, summary of Table 45
[7] = composition of the compound and thiamethoxam, summary of Table 46

Row | SMILES | pesticidal efficacy against cotton aphid (Aphis gossypii) [1] | pesticidal efficacy against brown planthopper (Nilaparvata lugens) [2, 3] | pesticidal efficacy against brown planthopper (Nilaparvata lugens) [2, 4] | pesticidal efficacy against brown planthopper (Nilaparvata lugens) [2, 5] | pesticidal efficacy against brown planthopper (Nilaparvata lugens) [2, 6] | pesticidal efficacy against brown planthopper (Nilaparvata lugens) [2, 7]
1 | FC(F)(F)c1ccc2oc(-c3ccncc3)nc2c1 [Compound 13, 2-(pyridin-4-yl)-5-(trifluoromethyl)benzoxazole] | high pesticidal efficacy | – | – | – | – | –
2 | FC(F)(F)c1ccc2oc(-c3ccncc3Cl)nc2c1 [Compound 18, 2-(3-chloropyridin-4-yl)-5-(trifluoromethyl)benzoxazole] | high pesticidal efficacy | high pesticidal efficacy | high pesticidal efficacy | high pesticidal efficacy | high pesticidal efficacy | high pesticidal efficacy
3 | Cc1c[n+]([O-])ccc1-c1nc2cc(C(F)(F)F)ccc2o1 [Compound 24, 3-methyl-4-[5-(trifluoromethyl)benzoxazole-2-yl]pyridine N-oxide] | high pesticidal efficacy | – | – | – | – | –
4 | CCc1cnccc1-c1nc2cc(C(F)(F)F)ccc2o1 [Compound 35, 2-(3-ethylpyridin-4-yl)-5-(trifluoromethyl)benzoxazole] | high pesticidal efficacy | – | – | – | – | –
5 | CSc1cnccc1-c1nc2cc(C(F)(F)F)ccc2o1 [Compound 40, 2-[3-(methylthio)pyridin-4-yl]-5-(trifluoromethyl)benzoxazole] | high pesticidal efficacy | – | – | – | – | –
6 | FC(F)(F)C(F)(F)c1ccc2oc(-c3ccncc3)nc2c1 [Compound 65, 5-(pentafluoroethyl)-2-(pyridin-4-yl)-benzoxazole] | high pesticidal efficacy | – | – | – | – | –
7 | CC(C)Oc1cnccc1-c1nc2cc(C(F)(F)F)ccc2o1 [Compound 70, 2-(3-isopropoxypyridin-4-yl)-5-(trifluoromethyl)benzoxazole] | high pesticidal efficacy | high pesticidal efficacy | high pesticidal efficacy | high pesticidal efficacy | high pesticidal efficacy | high pesticidal efficacy
8 | FC(F)(F)Sc1ccc2oc(-c3ccncc3Cl)nc2c1 [Compound 77, 2-(3-chloropyridin-4-yl)-5-(trifluoromethylthio)benzoxazole] | high pesticidal efficacy | high pesticidal efficacy | high pesticidal efficacy | high pesticidal efficacy | high pesticidal efficacy | high pesticidal efficacy
9 | COc1cnccc1-c1nc2cc3c(cc2o1)C(F)(F)OC3(F)F [Compound 88, 5,5,7,7-tetrafluoro-2-(3-methoxypyridin-4-yl)-5,7-dihydro-furo[3′,4′:4,5]benzo[1,2-d]oxazole] | high pesticidal efficacy | – | – | – | – | –
10 | CCc1cnccc1-c1nc2cc(OC(F)(F)F)ccc2o1 [Compound 109, 2-(3-ethylpyridin-4-yl)-5-(trifluoromethoxy)benzoxazole] | – | high pesticidal efficacy | high pesticidal efficacy | high pesticidal efficacy | high pesticidal efficacy | high pesticidal efficacy
11 | FC(F)COc1cnccc1-c1nc2cc(C(F)(F)F)ccc2o1 [Compound 110, 2-[3-(2,2-difluoroethoxy)pyridin-4-yl]-5-(trifluoromethyl)benzoxazole] | high pesticidal efficacy | – | – | – | – | –
12 | FC(F)(F)c1ccc2oc(-c3ccncc3-c3cccnc3)nc2c1 [Compound 128, 4-(5-trifluoromethyl-benzoxazole-2-yl)-[3,3′]bipyridinyl] | high pesticidal efficacy | high pesticidal efficacy | high pesticidal efficacy | high pesticidal efficacy | high pesticidal efficacy | high pesticidal efficacy
13 | CC(C)N(C)c1cnccc1-c1nc2cc(C(F)(F)F)ccc2o1 [Compound 132, isopropyl-methyl-{4-[5-(trifluoromethyl)benzoxazole-2-yl]pyridin-3-yl}amine] | high pesticidal efficacy | – | – | – | – | –
14 | CCS(=O)(=O)c1cnccc1-c1nc2cc(C(F)(F)F)ccc2o1 [Compound 133, 2-[3-(ethanesulfonyl)pyridin-4-yl]-5-(trifluoromethyl)benzoxazole] | high pesticidal efficacy | – | – | – | – | –
15 | FC(F)(F)c1cnc2oc(-c3ccncc3)nc2c1 [Compound 138, 2-pyridin-4-yl-6-(trifluoromethyl)oxazolo[5,4-b]pyridine] | high pesticidal efficacy | – | – | – | – | –
16 | FC(F)(F)c1cnc2oc(-c3ccncc3Cl)nc2c1 [Compound 139, 2-(3-chloropyridin-4-yl)-6-(trifluoromethyl)oxazolo[5,4-b]pyridine] | – | high pesticidal efficacy | high pesticidal efficacy | high pesticidal efficacy | high pesticidal efficacy | high pesticidal efficacy
17 | [O-][n+]1ccc(-c2nc3cc(C(F)(F)F)cnc3o2)c(Cl)c1 [Compound 140, 2-(3-chloro-1-oxypyridin-4-yl)-6-(trifluoromethyl)oxazolo[5,4-b]pyridine] | high pesticidal efficacy | – | – | – | – | –
18 | CCc1cnccc1-c1nc2cc(C(F)(F)F)cnc2o1 [Compound 143, 2-(3-ethylpyridin-4-yl)-6-(trifluoromethyl)oxazolo[5,4-b]pyridine] | high pesticidal efficacy | high pesticidal efficacy | high pesticidal efficacy | high pesticidal efficacy | high pesticidal efficacy | high pesticidal efficacy
19 | FC(F)(F)c1cnc2oc(-c3ccncc3C(F)(F)F)nc2c1 [Compound 144, 6-trifluoromethyl-2-[3-(trifluoromethyl)pyridin-4-yl]-oxazolo[5,4-b]pyridine] | high pesticidal efficacy | – | – | – | – | –
20 | CCS(=O)(=O)c1cnccc1-c1nc2cc(C(F)(F)F)cnc2o1 [Compound 150, 2-[3-(ethanesulfonyl)pyridin-4-yl]-6-(trifluoromethyl)oxazolo[5,4-b]pyridine] | high pesticidal efficacy | – | – | – | – | –
